Data reported in ChEMBL document CHEMBL1153514, “Fundamental relationships between structure, reactivity, and biological activity for the duocarmycins and CC-1065” (J Med Chem, 2009).

Tests used:
[1] = tested on: L1210; assay: Cytotoxicity against mouse L1210 cells; assay type: functional, cell-based
[2] = Stability assessed as half life at pH 2; assay type: physicochemical; conditions: buffer
[3] = Stability assessed as half life at pH 3; assay type: physicochemical; conditions: buffer
[4] = Stability assessed as half life at pH 7; assay type: physicochemical; conditions: buffer

Row | SMILES | IC50 [1] | half-life [3] | further results
1 | O=C1C=C2N(c3ccccc3)C[C@H]3C[C@@]23c2ccccc21 | 1100 nM | – | half-life [2]: 171 h
2 | Cc1cc2c(s1)[C@@]13C[C@@H]1CN(C(=O)OC(C)(C)C)C3=CC2=O | 25 nM | 209 h | –
3 | COC(=O)c1cc2c([nH]1)C(=O)C=C1N(C(=O)OC(C)(C)C)C[C@H]3C[C@]123 | – | – | Stability [4]: Stable
4 | COC(=O)c1cc2c([nH]1)C(=O)C=C1N(C(=O)c3cc4cc(OC)c(OC)c(OC)c4[nH]3)C[C@H]3C[C@]123 [DUOCARMYCIN] | – | 177 h | Stability [4]: Stable
5 | CC(C)(C)OC(=O)N1CC[C@H]2C[C@@]23C1=CC(=O)c1ccccc13 | – | – | half-life [4]: 544 h
6 | O=C1C=C2NC[C@H]3C[C@@]23c2ccccc21 | – | 4200 h | Stability [4]: Stable
7 | COC(=O)N1C[C@H]2C[C@@]23C1=CC(=O)c1ccccc13 | – | 0.95 h | –
8 | COc1cc2cc(C(=O)N3C[C@H]4C[C@@]45C3=CC(=O)c3ccccc35)[nH]c2c(OC)c1OC | 0.02 nM | 133 h | –
9 | COc1cc2cc(CN3C[C@H]4C[C@@]45C3=CC(=O)c3ccccc35)[nH]c2c(OC)c1OC | 1400 nM | – | t1/2 [3]: 1291.7 days
10 | CC(C)(C)OC(=O)N1C[C@H]2C[C@@]23C1=CC(=O)c1ccccc13 | – | – | Stability [4]: Stable
11 | COC(=O)c1ccc(N2C[C@H]3C[C@@]34C2=CC(=O)c2ccccc24)cc1 | 330 nM | – | half-life [2]: 138 h
12 | CC(C)(C)OC(=O)N1C[C@H]2C[C@@]23C1=CC(=O)c1ccc(C#N)cc13 | – | 3.55 h | –
13 | COC(=O)C1=NC2=C(OCc3ccccc3)C=C3N(C(=O)c4cc5cc(OC)c(OC)c(OC)c5[nH]4)C[C@H]4C[C@@]34C2=C1 | 5 nM | 0.417 h | half-life [4]: 0.717 h
14 | COc1ccc(N2C[C@H]3C[C@@]34C2=CC(=O)c2ccccc24)cc1 | 3200 nM | – | half-life [2]: 198 h
15 | Cc1csc2c1[C@@]13C[C@@H]1CN(C(=O)OC(C)(C)C)C3=CC2=O | 30 nM | 206 h | –
16 | O=C1C=C2CC[C@H]3C[C@@]23c2ccccc21 | – | 1.3 h | half-life [4]: 4 h
17 | COC(=O)c1cc2c([nH]1)[C@@]13C[C@@H]1CN(C(=O)OC(C)(C)C)C3=CC2=O | 33 nM | – | –
18 | CCS(=O)(=O)N1C[C@H]2C[C@@]23C1=CC(=O)c1ccccc13 | – | 6.38 h | –
19 | CC(C)(C)OC(=O)N1CCC[C@H]2C[C@@]23C1=CC(=O)c1ccccc13 | 5000 nM | 0.03 h | half-life [4]: 2.1 h
20 | COC(=O)c1cc2c([nH]1)[C@@]13C[C@@H]1CN(C(=O)c1cc4cc(OC)c(OC)c(OC)c4[nH]1)C3=CC2=O | 0.05 nM | – | –
21 | COC(=O)c1cccc2c1C(=O)C=C1N(C(=O)OC(C)(C)C)C[C@H]3C[C@]123 | 70 nM | 3.93 h | –
22 | CNC(=O)N1C[C@H]2C[C@@]23C1=CC(=O)c1ccccc13 | – | 0.6 h | –
23 | CCC(=O)N1C[C@H]2C[C@@]23C1=CC(=O)c1ccccc13 | – | 1.6 h | –
24 | COc1ccc2c(c1)[C@@]13C[C@@H]1CN(C(=O)OC(C)(C)C)C3=CC2=O | – | 1.83 h | –
